According to patent US8883782B2, “Spiro-tetracyclic ring compounds as beta-secretase modulators and methods of use” (Amgen Inc., priority 2010, dated 2014):
Read-outs that look alike come from different tables or passages of the source.

Key:
[1] = target: Beta Secretase enzyme (BACE) (Homo sapiens, UniProt P56817); experiment: In vitro enzymatic BACE FRET (fluorescence resonance energy transfer) assay; type: biochemical; conditions: average IC50, enzyme assay; read-out: BACE 1 FRET assay
In short: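 Cleavage of a 50 nM fluorophore/quencher peptide FRET substrate by BACE for 1 h in 0.05 M acetate pH 4.2, 10% DMSO, 100 uM genapol. Reaction stopped with Tris to neutral pH before fluorescence reading.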

[2] = test system: Aβ40 in conditioned medium of cells stably expressing Amyloid Precursor Protein (APP); experiment: In vitro BACE cell-based assay (Aβ40 in conditioned medium, sandwich ELISA); conditions: read-out: HEK cell assay
In short: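 Secreted Aβ40 is captured with pAb40 and detected with biotinylated 6E10, read by europium time-resolved fluorescence. IC50 comes from percent inhibition versus concentration.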

[3] = Homo sapiens, HEK293, average IC50
[4] = Homo sapiens, HEK293, average IC50, HEK cells

Sequence of Beta Secretase enzyme (BACE) (P56817 46-501, species assumed): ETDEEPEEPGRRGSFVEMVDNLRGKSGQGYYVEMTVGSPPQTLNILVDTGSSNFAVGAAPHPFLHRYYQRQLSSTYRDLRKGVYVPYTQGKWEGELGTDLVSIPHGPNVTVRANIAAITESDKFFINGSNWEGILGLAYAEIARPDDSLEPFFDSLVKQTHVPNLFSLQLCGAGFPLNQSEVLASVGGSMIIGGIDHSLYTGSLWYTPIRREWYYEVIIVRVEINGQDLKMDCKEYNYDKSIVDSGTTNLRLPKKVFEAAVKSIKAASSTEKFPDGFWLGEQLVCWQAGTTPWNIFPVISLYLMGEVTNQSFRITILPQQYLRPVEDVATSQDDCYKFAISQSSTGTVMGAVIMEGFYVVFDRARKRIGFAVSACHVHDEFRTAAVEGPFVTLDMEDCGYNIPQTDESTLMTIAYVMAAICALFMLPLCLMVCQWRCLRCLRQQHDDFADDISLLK

**Q.** `CC1(C#Cc2cc3c(c(F)n2)Oc2ccc(-c4cccnc4F)cc2[C@@]32COC(N)=N2)COC1` [Example 738, (5S)-1-fluoro-7-(2-fluoro-3-pyridinyl)-3-((3-methyl-3-oxetanyl)ethynyl)spiro[chromeno[2,3-c]pyridine-5,4′-[1,3]oxazol]-2′-amine] was tested. Which IC50 [1] did it give?
**A.** 0.6 nM

**Q.** And the IC50 [2, 3]?
**A.** 10 nM

**Q.** `C[C@@H]1CN(c2cc(F)c3c(c2)[C@]2(COC(N)=N2)c2cc(-c4cccnc4F)ccc2O3)C[C@H](C)O1` [Example 303, (4S)-2′-((2R,6S)-2,6-dimethyl-4-morpholinyl)-4′-fluoro-7′-(2-fluoro-3-pyridinyl)spiro[1,3-oxazole-4,9′-xanthen]-2-amine] was tested. Which IC50 [1] did it give?
**A.** 2 nM

**Q.** What about the IC50 [2, 3] of the same compound?
**A.** 6.7 nM

**Q.** For `CC1(C)CC(c2cc3c(c(F)n2)Oc2ccc(-c4cccnc4F)cc2[C@@]32CSC(N)=N2)=CCO1` [Example 1034, (5S)-3-(2,2-dimethyl-3,6-dihydro-2H-pyran-4-yl)-1-fluoro-7-(2-fluoro-3-pyridinyl)spiro[chromeno[2,3-c]pyridine-5,4′-[1,3]thiazol]-2′-amine], which IC50 [1] is on record?
**A.** 0.7 nM

**Q.** And the IC50 [2, 3]?
**A.** 5 nM

**Q.** Which IC50 [1] does the source give for `CC#Cc1cncc(-c2ccc3c(c2)[C@@]2(COC(N)=N2)c2cc(Cl)nc(F)c2O3)c1` [Example 761, (5S)-3-chloro-1-fluoro-7-(5-(1-propyn-1-yl)-3-pyridinyl)spiro[chromeno[2,3-c]pyridine-5,4′-[1,3]oxazol]-2′-amine] here?
**A.** 0.9 nM

**Q.** And the IC50 [2, 3]?
**A.** 185 nM

**Q.** For `NC1=N[C@@]2(CS1)c1cc(-c3cccnc3)ccc1Oc1c2cc(-c2cccnc2)nc1F` [Example 1031, (5S)-1-fluoro-3,7-di-3-pyridinylspiro[chromeno[2,3-c]pyridine-5,4′-[1,3]thiazol]-2′-amine], which IC50 [1] is on record?
**A.** 0.3 nM

**Q.** And the IC50 [2, 3]?
**A.** 3 nM

**Q.** Which IC50 [1] does the source give for `NC1=N[C@]2(CO1)c1cc(-c3cccnc3F)ccc1Oc1nc(F)c(I)cc12` [Example 899, (5R)-2-fluoro-7-(2-fluoro-3-pyridinyl)-3-iodospiro[chromeno[2,3-b]pyridine-5,4′-[1,3]oxazol]-2′-amine] here?
**A.** 40000 nM

**Q.** And the IC50 [2, 4]?
**A.** ≥ 10000 nM

**Q.** `NC1=N[C@@]2(CO1)c1cc(-c3c(F)ccnc3F)ccc1Oc1cnc([C@H]3CCCOC3)cc12` [Example 913, (5S)-7-(2,4-difluoro-3-pyridinyl)-3-((3R)-tetrahydro-2H-pyran-3-yl)spiro[chromeno[2,3-c]pyridine-5,4′-[1,3]oxazol]-2′-amine] was tested. Which IC50 [1] did it give?
**A.** 16.1 nM

**Q.** What about the IC50 [2, 4] of the same compound?
**A.** 211 nM

**Q.** What does the source list for `NC1=NC2(CO1)c1cc(-c3cccnc3F)ccc1Oc1nc(F)c(-c3ccnc(F)c3)cc12` (stereo not shown) [Example 151, 2-fluoro-7-(2-fluoro-3-pyridinyl)-3-(2-fluoro-4-pyridinyl)spiro[chromeno[2,3-b]pyridine-5,4′-[1,3]oxazol]-2′-amine]?
**A.** IC50 [1]: 1.3 nM; IC50 [2, 3]: 50.8 nM

**Q.** `NC1=N[C@@]2(CO1)c1cc(-c3cncnc3)c(F)cc1Oc1c(F)cc(C3=CCOCC3)cc12` [Example 1038, (4S)-7′-(3,6-dihydro-2H-pyran-4-yl)-3′,5′-difluoro-2′-(5-pyrimidinyl)spiro[1,3-oxazole-4,9′-xanthen]-2-amine] was tested. Which IC50 [1] did it give?
**A.** 0.4 nM

**Q.** What about the IC50 [2, 3] of the same compound?
**A.** 10 nM

**Q.** Which IC50 [1] does the source give for `NC1=NC2(CS1)c1cc(-c3cccnc3F)ccc1Oc1c2cc(C2=CCOCC2)nc1F` (stereo not shown) [Example 638, 3-(3,6-dihydro-2H-pyran-4-yl)-1-fluoro-7-(2-fluoro-3-pyridinyl)spiro[chromeno[2,3-c]pyridine-5,4′-[1,3]thiazol]-2′-amine] here?
**A.** 0.6 nM

**Q.** And the IC50 [2, 4]?
**A.** 4 nM

**Q.** `CC1(COc2cc(F)c3c(c2)[C@@]2(CSC(N)=N2)c2cc(-c4cncnc4)c(F)cc2O3)COC1` [Example 876, (4R)-3′,5′-difluoro-7′-((3-methyl-3-oxetanyl)methoxy)-2′-(5-pyrimidinyl)spiro[1,3-thiazole-4,9′-xanthen]-2-amine] was tested. Which IC50 [1] did it give?
**A.** 44.9 nM

**Q.** And the IC50 [2, 4]?
**A.** 634 nM

**Q.** What does the source list for `CN1CCN(c2cccc(-c3ccc4c(c3)[C@@]3(COC(N)=N3)c3cc(Cl)ncc3O4)c2)CC1(C)C` [Example 531, (5S)-3-chloro-7-(3-(3,3,4-trimethyl-1-piperazinyl)phenyl)spiro[chromeno[2,3-c]pyridine-5,4′-[1,3]oxazol]-2′-amine]?
**A.** IC50 [1]: 13700 nM; IC50 [2, 4]: 334 nM

**Q.** Which results are given for `NC1=N[C@]2(CO1)c1cc(-c3cnccc3F)c(F)cc1Oc1ncc(C3=CCOCC3)cc12` [Example 645, (5R)-3-(3,6-dihydro-2H-pyran-4-yl)-8-fluoro-7-(4-fluoro-3-pyridinyl)spiro[chromeno[2,3-b]pyridine-5,4′-[1,3]oxazol]-2′-amine]?
**A.** IC50 [1]: 53.1 nM; IC50 [2, 4]: 291 nM

**Q.** How did the IC50 [1] turn out when `CC1(C#Cc2cnc3c(c2)[C@]2(COC(N)=N2)c2cc(-c4cncc(Cl)c4)c(F)cc2O3)COC1` [Example 626, (5S)-7-(5-chloro-3-pyridinyl)-8-fluoro-3-((3-methyl-3-oxetanyl)ethynyl)spiro[chromeno[2,3-b]pyridine-5,4′-[1,3]oxazol]-2′-amine] was run?
**A.** 0.8 nM

**Q.** And the IC50 [2, 4]?
**A.** 6 nM

**Q.** How did the IC50 [1] turn out when `COc1cc(F)c2c(c1)C1(COC(N)=N1)c1cc(Br)c(F)cc1O2` (stereo not shown) [Example 521, 2′-bromo-3′,5′-difluoro-7′-methoxyspiro[1,3-oxazole-4,9′-xanthen]-2-amine] was run?
**A.** 7240 nM

**Q.** What about the IC50 [2, 4] of the same compound?
**A.** 10000 nM

**Q.** Which results are given for `NC1=N[C@]2(CO1)c1cc(-c3cccnc3)ccc1Oc1c2cc(-c2cccnc2)nc1F` [Example 486, (5R)-1-fluoro-3,7-di-3-pyridinylspiro[chromeno[2,3-c]pyridine-5,4′-[1,3]oxazol]-2′-amine]?
**A.** IC50 [1]: 301 nM; IC50 [2, 4]: 326 nM

**Q.** Which IC50 [1] does the source give for `NC1=N[C@]2(CO1)c1cc(-c3ccnc(F)c3)ccc1Oc1cnc(Cl)cc12` [Example 392, (5R)-3-chloro-7-(2-fluoro-4-pyridinyl)spiro[chromeno[2,3-c]pyridine-5,4′-[1,3]oxazol]-2′-amine] here?
**A.** 5540 nM

**Q.** What about the IC50 [2, 4] of the same compound?
**A.** 10000 nM

**Q.** Which IC50 [1] does the source give for `CC1(C#Cc2cnc3c(c2)[C@]2(COC(N)=N2)c2cc(-c4cncc(F)c4)c(F)cc2O3)COC1` [Example 623, (5S)-8-fluoro-7-(5-fluoro-3-pyridinyl)-3-((3-methyl-3-oxetanyl)ethynyl)spiro[chromeno[2,3-b]pyridine-5,4-[1,3]oxazol]-2′-amine] here?
**A.** 0.9 nM

**Q.** And the IC50 [2, 4]?
**A.** 9 nM

**Q.** With `Cc1ccn(-c2cc(F)c3c(c2)[C@]2(COC(N)=N2)c2cc(-c4cncnc4)ccc2O3)n1` [Example 635, (4S)-4′-fluoro-2′-(3-methyl-1H-pyrazol-1-yl)-7′-(5-pyrimidinyl)spiro[1,3-oxazole-4,9′-xanthen]-2-amine] as the compound, how does the IC50 [1] read?
**A.** 2.4 nM

**Q.** And the IC50 [2, 4]?
**A.** 23 nM

**Q.** Which IC50 [1] does the source give for `COc1ccc(-c2cc3c(cn2)Oc2ccc(-c4cccnc4F)cc2[C@@]32COC(N)=N2)cc1` [Example 568, (5S)-7-(2-fluoro-3-pyridinyl)-3-(4-methoxyphenyl)spiro[chromeno[2,3-c]pyridine-5,4′-[1,3]oxazol]-2′-amine] here?
**A.** 2.3 nM

**Q.** What about the IC50 [2, 4] of the same compound?
**A.** 29.5 nM

**Q.** With `NC1=N[C@@]2(CO1)c1cc(-c3cncnc3)ccc1Oc1c(F)cc(-n3cccn3)cc12` [Example 692, (4S)-4′-fluoro-2′-(1H-pyrazol-1-yl)-7′-(5-pyrimidinyl)spiro[1,3-oxazole-4,9′-xanthen]-2-amine] as the compound, how does the IC50 [1] read?
**A.** 3.7 nM

**Q.** What about the IC50 [2, 4] of the same compound?
**A.** 74 nM

**Q.** What does the source list for `NC1=N[C@@]2(CO1)c1cc(-c3c(F)ccnc3F)ccc1Oc1cnc([C@H]3CCCCO3)cc12` [Example 617, (5S)-7-(2,4-difluoro-3-pyridinyl)-3-((2R)-tetrahydro-2H-pyran-2-yl)spiro[chromeno[2,3-c]pyridine-5,4′-[1,3]oxazol]-2′-amine]?
**A.** IC50 [1]: 5.2 nM; IC50 ([2]; average IC50, HEK cells): 42 nM

**Q.** For `CC1(C)C[C@@H](c2cc(F)c3c(c2)[C@]2(COC(N)=N2)c2cc(-c4cnccn4)ccc2O3)CCO1` [Example 449, (4S)-2′-((4S)-2,2-dimethyltetrahydro-2H-pyran-4-yl)-4′-fluoro-7′-(2-pyrazinyl)spiro[1,3-oxazole-4,9′-xanthen]-2-amine], which IC50 [1] is on record?
**A.** 3.7 nM

**Q.** What about the IC50 [2, 4] of the same compound?
**A.** 20 nM

**Q.** What does the source list for `CC1(C#Cc2cc3c(cn2)Oc2ccc(-c4c(F)ccnc4F)cc2[C@@]32COC(N)=N2)COC1` [Example 957, (5S)-7-(2,4-difluoro-3-pyridinyl)-3-((3-methyl-3-oxetanyl)ethynyl)spiro[chromeno[2,3-c]pyridine-5,4′-[1,3]oxazol]-2′-amine]?
**A.** IC50 [1]: 1.2 nM; IC50 [2, 4]: 33 nM

**Q.** Which IC50 [1] does the source give for `CC#Cc1cncc(-c2ccc3c(c2)[C@@]2(COC(N)=N2)c2cc(-c4ccc(C)nc4)nc(F)c2O3)c1` [Example 741, (5S)-1-fluoro-3-(6-methyl-3-pyridinyl)-7-(5-(1-propyn-1-yl)-3-pyridinyl)spiro[chromeno[2,3-c]pyridine-5,4′-[1,3]oxazol]-2′-amine] here?
**A.** 0.4 nM

**Q.** What about the IC50 [2, 3] of the same compound?
**A.** 4 nM

**Q.** Which IC50 [1] does the source give for `NC1=N[C@@]2(CO1)c1cc(-c3cccnc3)c(F)cc1Oc1c(F)cc(N3CCOCC3)cc12` [Example 861, (4S)-3′,5′-difluoro-7′-(4-morpholinyl)-2′-(3-pyridinyl)spiro[1,3-oxazole-4,9′-xanthen]-2-amine] here?
**A.** 1 nM

**Q.** And the IC50 [2, 4]?
**A.** 15 nM

**Q.** `CC(C)(C)COc1ccc2c(c1)[C@@]1(COC(N)=N1)c1cc(C3=CCOC(C)(C)C3)cnc1O2` [Example 507, (5S)-3-(2,2-dimethyl-3,6-dihydro-2H-pyran-4-yl)-7-(2,2-dimethylpropoxy)spiro[chromeno[2,3-b]pyridine-5,4′-[1,3]oxazol]-2′-amine] was tested. Which IC50 [1] did it give?
**A.** 5.6 nM

**Q.** And the IC50 ([2]; average IC50, HEK cells)?
**A.** 31 nM

**Q.** Which IC50 [1] does the source give for `CC(C)(C)COc1ccc2c(c1)[C@]1(COC(N)=N1)c1cc(-c3cncnc3)c(F)cc1O2` [Example 512, (4S)-7′-(2,2-dimethylpropoxy)-3′-fluoro-2′-(5-pyrimidinyl)spiro[1,3-oxazole-4,9′-xanthen]-2-amine] here?
**A.** 103 nM

**Q.** And the IC50 [2, 4]?
**A.** 378 nM

**Q.** Which results are given for `NC1=N[C@]2(CS1)c1cc(I)ccc1Oc1ncc(Br)cc12` [Example 579, (5R)-3-bromo-7-iodospiro[chromeno[2,3-b]pyridine-5,4′-[1,3]thiazol]-2′-amine]?
**A.** IC50 [1]: 1930 nM; IC50 [2, 4]: 3180 nM
